Values quoted from earlier work as cited in PMC11672368 (Therapeutic Advances in Medical Oncology, 2024).

Columns and labels:
[1] = depot injection
[2] = test system: serum testosterone

## Triptorelin
other
  elimination half-life (t1/2): 5 h

## degarelix
[1]
  incidence of injection-site reactions: ~40%

## leuprolide acetate
[2]
  achievement rate of serum total testosterone 0.2 ng/mL: 57%
